Data on two molecules can be found in PMC8878748, “Broad-Spectrum Antiviral Activity of the Amphibian Antimicrobial Peptide Temporin L and Its Analogs” (International Journal of Molecular Sciences, 2022).

Where a SMILES comes first, the peptide text is derived from it. [ ]: non-standard residue; d: D form. The star is where a group is joined. X1 = CC(C)CCC[C@@H](C)[C@H]1CC[C@H]2[C@@H]3CC=C4C[C@@H](OC(=O)CCOCCOCCOCCOCCNC(=O)C*)CC[C@]4(C)[C@H]3CC[C@]12C; Nle = CCCC[C@H](N)C(=O)O

The nature of series [1]: MTT cytotoxicity assay on Vero cells. It is filed as cell-based. The following applies: MTT, calculated after 2 h of peptide treatment.
The next series deals with Vero cells. Description: MTT cytotoxicity assay on Vero cells. It is filed as cell-based. The following applies: 2 h of treatment, concentration above 50 μM.
The subject of series [2] is influenza virus (subtype H1N1). The following applies: influenza virus (subtype, 2 h).
The subject of another series is MeV. The settings on record: 2 h.
Another series relates to HSV-1. Also noted: method as in PMID 29483113. The settings on record: preincubation of HSV-1 purified virions with 20 µg/mL; cited from earlier work.

For orientation: CC50 means the concentration giving 50% cytotoxicity. What is called IC50 is the concentration at which inhibition is half-maximal. One may read the IC90 as the concentration needed for an effect of 90%. Read a high IC90 as weaker potency.

On to `CCCC[C@H](NC(=O)[C@@H](CC(C)C)NC(=O)[C@H](Cc1ccccc1)NC(=O)[C@H](CCCCN)NC(=O)[C@H](CO)NC(=O)[C@H](Cc1ccccc1)NC(=O)[C@H](Cc1c[nH]c2ccccc12)NC(=O)[C@@H]1CCCN1C(=O)[C@@H](NC(=O)[C@@H](N)Cc1ccccc1)C(C)C)C(=O)N[C@@H](CCCNC(=N)N)C(=O)N[C@H](C(=O)N[C@@H](CC(C)C)C(=O)NCC(=O)NCC(=O)N[C@@H](CSCC(=O)NCCOCCOCCOCCOCCC(=O)O[C@H]1CC[C@@]2(C)C(=CC[C@H]3[C@@H]4CC[C@H]([C@H](C)CCCC(C)C)[C@@]4(C)CC[C@@H]32)C1)C(N)=O)[C@@H](C)CC` [TL6.2, H-Phe-Val-Pro-Trp-Phe-Ser-Lys-Phe-DLeu-Nle-Arg-Ile-Leu-Gly-Gly-Cys-[PEG4-Cholesterol]-NH2] (H-FVPWFSKF[dL][Nle]RILGGC(X1)-NH2), for which the CC50 in series [1] is more than 100 µM. For the same molecule, the toxicity result with Vero cells is listed as “about 40%”. Besides, the IC50 came out at 21.1 µM in series [2] and 40.9 µM in the series with MeV. Further, the values for the IC90 (in series [2]; in the series on MeV) were 49.9 µM and more than 50 µM, respectively.
Take temporin B [TB]: the “reduction of virus titers” value in the series on HSV-1 is reported as 5 log.
